Experimental data published in patent publication US20160113900A1, “INHIBITORS OF MITOCHONDRIAL STAT3 AND USES THEREOF IN MODULATION OF MAST CELL EXOCYTOSIS” (Yissum Research Development Company of the Hebrew …, priority 2014, published 2016).

Assays:
Format in all cases: cell-based, rat
[1] = test system: RBL cells; experiment: Oxygen consumption (Seahorse XF analyzer) in RBL cells; conditions: RBL cells, 60 μM Stattic, 20 min
[2] = test system: STAT3 serine 727 phosphorylation; experiment: Western blot of STAT3 serine 727 phosphorylation in activated RBL cells; conditions: RBL cells, 60 μM Stattic 20 min, immunologically activated 5 min
Experimental: RBL cells were washed once in cold PBS prior to homogenization. 9×10^6 cells were homogenized in buffer A (320 mm sucrose, 5 mm Tris, 2 mm EGTA, pH 7.4) with 10 strokes of a Teflon Dounce homogenizer. The procedure was performed at 4° C. The homogenate was centrifuged for 3 min at 2000 g and the supernatant kept. This was repeated twice, and the supernatants combined then centrifuged for 3 min at 2000 g. to remove the nuclei and cell debris. The supernatant was transferred to a clean tube and centrifuged for 10 min at 12,000 g to pellet mitochondria, washed twice resuspended in a small volume of buffer A and stored at −70° C. In order to prepare mitoplasts, the mitochondrial pellet was resuspended in buffer A with the addition of 0.02% (w/v) digitonin. The pellet was resuspended and washed twice in large volumes of digitonin-free buffer A. […] Cells and mitochondria were vortexed and incubated on ice for 15 min. The lysates were then centrifuged at 14,000 g for 15 min and pellets were discarded. The protein concentration of each sample was determined using Bradford Reagent (Sigma-Aldrich). Proteins were resolved by 10-15% SDS-PAGE under reducing conditions and transferred to polyvinylidene difluoride membranes (Millipore Billerica, Ma). […] The membranes were washed three times with TBST for 5 mM before and after each incubation with secondary Ab. The proteins were detected with the appropriate secondary Ab (1 h; room temperature) coupled to HRP-conjugated goat anti-rabbit or anti-mouse Ab and visualized by chemiluminescence according to the manufacturer's instructions (Pierce).

[3] = test system: caspase3; experiment: Western blot of caspase3 / cleaved caspase3 (apoptosis) in RBL cells; conditions: activated RBL cells, 60 μM Stattic
Experimental: RBL cells and mitochondrial pellets were lysed by the addition of lysis buffer (50 mM Tris-HCl pH 7.4, 1% Nonidet P-40, 0.25% Na-deoxycholate, 150 mM NaCl, 1 mM EDTA, 1 mM PMSF) supplemented with 15 μl protease inhibitor (Sigma-Aldrich). Cells and mitochondria were vortexed and incubated on ice for 15 min. The lysates were then centrifuged at 14,000 g for 15 min and pellets were discarded. The protein concentration of each sample was determined using Bradford Reagent (Sigma-Aldrich). Proteins were resolved by 10-15% SDS-PAGE under reducing conditions and transferred to polyvinylidene difluoride membranes (Millipore Billerica, Ma). The membranes were incubated in 5% fat-free milk and TBST (10 mM Tris-HCl, pH 7.4, 150 mM NaCl, 0.1% Tween 20) for 1 h and then in 5% BSA and TBST containing various dilutions of primary Abs for 18 h at 4° C. The membranes were washed three times with TBST for 5 mM before and after each incubation with secondary Ab. The proteins were detected with the appropriate secondary Ab (1 h; room temperature) coupled to HRP-conjugated goat anti-rabbit or anti-mouse Ab and visualized by chemiluminescence according to the manufacturer's instructions (Pierce).

[4] = test system: succinate dehydrogenase (SDH, complex 2); experiment: ETC complex activity analysis in treated RBL cells: complex 2; conditions: 60 μM Stattic, 30 min
Experimental: The enzymatic activities of respiratory chain complexes were measured at 37° C. by standard spectrophotometric methods as previously described5, 6. Briefly, complex II was measured as succinate dehydrogenase (SDH) based on the succinate-mediated phenazine methosulfate reduction of dichloroindophenol at 600 nm Complex 2+3 were measured as succinate cytochrome c reductase and after the reduction of oxidized cytochrome c at 550 nm. Complex 4 (cytochrome c oxidase) was measured by following the oxidation of reduced cytochrome c at 550 nm.
Citrate synthase (CS), an ubiquitous mitochondrial matrix enzyme, serving as a control, was measured in the presence of acetylCoA and oxaloacetate by monitoring the liberation of CoASH coupled to 5′,5′-dithiobis(2-nitrobenzoic) acid at 412 nm. Activities are presented as a ratio to CS. Protein concentration was determined by the Lowry method and calculated according to a bovine serum albumin (BSA) standard curve.

O=[N+]([O-])c1ccc2c(c1)S(=O)(=O)C=C2 [Stattic, 6-Nitrobenzo[b]thiophene 1,1-dioxide, reference compound]
reduction in oxygen consumption [1]: 18.6±8.3% | phosphorylation levels of STAT3 serine 727 in total cell lysate [2]: significant reduction | caspase3 levels (apoptosis) [3]: no change | change in succinate dehydrogenase (SDH, complex 2) activity [4]: No significant change
